Results on six compounds are retold here after the NIST ThermoML archive (doi:10.1021/je0601816).

The nature of the series: xn = mol fraction of the nth substance listed. Conditions: 100 kPa, Liquid, Taylor dispersion method, x1 = 0.

For `O=C[C@H](O)[C@@H](O)[C@@H](O)[C@H](O)CO` [(+)-galactose] + O, the binary diffusion coefficient (273.2 K) turned out to be 3.19e-10 m2/s; the binary diffusion coefficient (293.2 K) is 6.25e-10 m2/s; the binary diffusion coefficient (298.2 K) is 7.06e-10 m2/s; the binary diffusion coefficient (313.2 K) stood at 1.01e-09 m2/s; the binary diffusion coefficient (333.2 K) is 1.51e-09 m2/s; the binary diffusion coefficient (353.2 K) stood at 2.17e-09 m2/s.

Take `O=C[C@@H](O)[C@H](O)[C@H](O)CO` [D-(-)-arabinose] + O: the binary diffusion coefficient (273.2 K) was found to be 3.59e-10 m2/s; the binary diffusion coefficient (293.2 K) is 6.82e-10 m2/s; the binary diffusion coefficient (298.2 K) amounted to 7.73e-10 m2/s; the binary diffusion coefficient (313.2 K) was 1.11e-09 m2/s; the binary diffusion coefficient (333.2 K) was found to be 1.67e-09 m2/s; the binary diffusion coefficient (353.2 K) worked out at 2.37e-09 m2/s.

With `O=C[C@H](O)[C@@H](O)[C@H](O)[C@H](O)CO` [D-glucose] + O, the binary diffusion coefficient reads like this: (273.2 K) 3.23e-10 m2/s; (293.2 K) 6.05e-10 m2/s; (298.2 K) 6.76e-10 m2/s; (313.2 K) 9.97e-10 m2/s; (333.2 K) 1.49e-09 m2/s; (353.2 K) 2.13e-09 m2/s.

In the case of `O=C[C@H](O)[C@@H](O)[C@H](O)CO` [D-xylose] + O, the binary diffusion coefficient (273.2 K) is 3.48e-10 m2/s; the binary diffusion coefficient (293.2 K) is 6.65e-10 m2/s; the binary diffusion coefficient (298.2 K) was 7.69e-10 m2/s; the binary diffusion coefficient (313.2 K) came out at 1.11e-09 m2/s; the binary diffusion coefficient (333.2 K) came to 1.64e-09 m2/s; the binary diffusion coefficient (353.2 K) worked out at 2.33e-09 m2/s.

Turning to `OC[C@H]1O[C@@](CO)(O[C@H]2O[C@H](CO)[C@@H](O)[C@H](O)[C@H]2O)[C@@H](O)[C@@H]1O` [D-sucrose] + O, the binary diffusion coefficient runs as follows: (273.2 K) 2.55e-10 m2/s; (293.2 K) 4.87e-10 m2/s; (298.2 K) 5.46e-10 m2/s; (313.2 K) 7.92e-10 m2/s; (333.2 K) 1.17e-09 m2/s; (353.2 K) 1.69e-09 m2/s.

Take `O=C[C@@H](O)[C@@H](O)[C@H](O)[C@H](O)CO` [D-mannose] + O: the binary diffusion coefficient worked out at 3.34e-10 m2/s (273.2 K); 6.2e-10 m2/s (293.2 K); 7.04e-10 m2/s (298.2 K); 1.02e-09 m2/s (313.2 K); 1.59e-09 m2/s (333.2 K); 2.16e-09 m2/s (353.2 K).
